From publication PMC11187217, “Anti-adhesive, anti-biofilm and fungicidal action of newly synthesized gemini quaternary ammonium salts” (Scientific Reports, 2024)
Where two headings read alike, the source gives them in different places. Marks after values point to notes of the source that are not given here.

How the values were obtained:
[1] = system: Saccharomyces cerevisiae BY4741 ATCC 201388; assay: MIC/MFC, microdilution method (modified CLSI M27); format: cell-based; conditions: for MIC: YPG, read-out: Minimum inhibitory concentration (MIC); for MIC / Minimum fungicidal concentration (MFC*): 28 °C; for Minimum fungicidal concentration (MFC*): no growth on solid YPG; for MFC: read-out: Minimum fungicidal concentration (MFC*), S. cerevisiae BY4741, no growth on solid YPG, 28 °C
Procedure: (§1) Minimum inhibitory concentration (MIC) and minimum fungicidal concentration (MFC) values were determined based on the modified CLSI M27 protocol. The study was performed using the microdilution method on sterile 96-well titration plates. The S. cerevisiae Σ1278b ATCC 42800, S. cerevisiae BY4741 ATCC 201388, C. albicans ATCC 10231, C. albicans 595/20 and R. mucilaginosa ATCC 4056 were incubated for 18 h at 28 °C (without shaking), then centrifuged (1000 rcf, 5 min), and the obtained pellet was suspended in fresh YPG medium and optical density (OD) = 0.25–0.3 was determined at a wavelength (λ) of 590 nm. Next, 10 μl of selected compounds at appropriate final concentrations (5–1280 μM) were spotted into the wells of the titration plate. Then, 80 μl of YPG medium and 10 μl of culture with a fixed OD were added. All tests were performed in triplicate. The plate was incubated at 28 °C for 24 h. The YPG medium was a negative control, while the prepared culture not treated with compounds was a positive control. […] The minimum inhibitory concentration was determined at 90% growth inhibition.
(§2) In order to determine the MFC of selected gemini surfactants, 10 μl of culture was transferred to solid YPG medium from the wells of the titration plate in which MIC was observed and from wells with the compound with higher concentrations. The spotted suspensions were incubated at 28 °C for 24 h. After incubation, inhibition of the growth of microorganisms was observed.

[2] = system: Candida albicans 595/20; assay: MIC/MFC, microdilution method (modified CLSI M27); format: cell-based; conditions: C. albicans 595/20 (clinical isolate), 28 °C; for MIC / MFC: Candida albicans; for MIC: 595/20, 24 h, read-out: Minimum inhibitory concentration (MIC); for MFC: read-out: Minimum fungicidal concentration (MFC*)
Procedure: as §1, §2

[3] = system: Rhodotorula mucilaginosa ATCC 4056; assay: MIC/MFC, microdilution method (modified CLSI M27); format: cell-based; conditions: 28 °C; for Minimum inhibitory concentration (MIC) / MIC: YPG; for MIC: read-out: Minimum inhibitory concentration (MIC); for Minimum fungicidal concentration (MFC*): no growth on solid YPG; for MFC: R. mucilaginosa ATCC 4056, no growth on solid YPG, read-out: Minimum fungicidal concentration (MFC*)
Procedure: as §1, §2

[4] = system: Candida albicans ATCC 10231; assay: MIC/MFC, microdilution method (modified CLSI M27); format: cell-based; conditions: 28 °C; for MIC / MFC: Candida albicans, ATCC10231, 24 h; for MIC: C. albicans ATCC 10231, 90% growth inhibition, read-out: Minimum inhibitory concentration (MIC); for MFC: C. albicans ATCC 10231, no growth on solid YPG, read-out: Minimum fungicidal concentration (MFC*)
Procedure: as §1, §2

[5] = system: C. albicans ATCC 10231 biofilm; assay: Biofilm eradication (crystal violet); format: cell-based, Candida albicans; conditions: 24 h biofilm, 4 h exposure, concentration not given (tested 20–1280 µM)
Procedure: The culture of C. albicans ATCC 10231 was incubated with shaking for 18 h at 37 °C, centrifuged (1000 rcf, 5 min), and the pellet was suspended in PBS (pH 7.4) until OD = 0.8. 100 µl of the obtained culture was spotted into the wells of a 96-well plate and it was incubated at 37 °C for 24 h. After incubation, the culture was removed from the wells and rinsed with sterile distilled water. Then, 100 µl of the tested gemini QAS at concentrations of 20–1280 µM were added and incubated for 4 h at 37 °C. After this time, the compounds were removed, and the plates were rinsed with sterile distilled water and placed in an oven (60 °C, 20 min) to strengthen the formed biofilm. Then 100 µl of crystal violet (0.1%) was added and stained for 5 min. The plates were rinsed with sterile distilled water until there were no traces of purple in the rinse water, and 150 µl of washing mixture (1% SDS, 50 mmol HCl, 100% isopropanol) was added. Absorbance was measured at λ = 590 nm (BioTek 800 TS Absorbance Reader). The negative control was the medium, while the positive control was the culture wells to which the tested gemini QAS had not been added. The experiment was carried out based on a modification of the method of Obłąk et al.. The tested samples were performed in 3 repetitions.

[6] = Critical micelle concentration (CMC), conductometric method; format: physicochemical; conditions: double distilled water, 25 °C
Excerpt: Alkanoyl chlorides (dodecanoyl, tetradecanoyl and hexadecanoyl) were obtained from Sigma-Aldrich. Anhydrous lactic acid (99%, crystalline) was purchased from Alfal. All solvents were obtained from Avantor Performance Materials or Stanlab and used as received. Methanol (solvent) for counterions exchange reactions was analytical grade (Avantor Performance Materials) and was additionally dried over CaH2 prior synthesis. Deuterated solvents were from Sigma-Aldrich. CMC values of surfactants were measured conductometrically in double distilled water at 25 °C.
(§3) Elemental analysis was conducted utilizing Vario EL cube (Elementar, Germany) calibrated on acetanilide. Mass spectra were gain by electrospray ionization mass spectroscopy (ESI–MS) (micrOTOF-Q instrument; Bruker Daltonics, Germany). The ESI–MS aparatus was operated in the positive ion mode (calibrated with the Tunemix™ mixture; Bruker Daltonics; Germany), followed by spectra analysis by the DataAnalysis 3.4 software (Bruker Daltonics, Germany)—resolution of at least 5 ppm. Proton NMR and ^13C NMR measurements were performed on a Bruker AMX-500 spectrometer, utilizing CDCl3 or DMSO-d6 as a solvent. Proton and ^13C chemical shifts (given in ppm) were calibrated to TMS (δ = 0 ppm) as an internal reference. Krafft points were measured according to procedures described in our previous studies Lamch et al.,[82]. Values of CMC for all surfactants were measured utilizing the conductometric method for the compounds’ solutions in milliQ water in the same manner as described in Kula et al.. For all spectra: ^1H NMR, ^13C NMR and ESI–MS as well as appropriate comments see Electronic Supplementary Material.

[7] = system: Salmonella Typhimurium TA98; assay: Mutagenicity, Ames test; conditions: for Number of colonies: ± SD
Procedure: (§4) The mutagenic potential of the tested gemini QAS was determined using the Ames test[83] using Salmonella Typhimurium TA98 and Salmonella Typhimurium TA100 with defects in histidine biosynthesis. The culture of S. Typhimurium TA98 and S. Typhimurium TA100 was incubated with shaking at 37 °C for 18 h, centrifuged (3000 rpm, 5 min) and OD = 1.5 was determined, at a wavelength of λ = 590 nm. The agar was dissolved and cooled to 42 °C. […] The media were incubated for 48 h at 37 °C. The positive control for the S. Typhimurium TA98 strain was acriflavin (100 μg/ml), and for the S. Typhimurium TA100 strain, sodium azide (15 μg/ml). The negative control was the culture without tested compound and with NaCl (0,9%). After incubation, the colonies were counted and the mutagenicity index (MR) was determined—the ratio of the number of revertants resulting from the mutagenic effect of the tested compound to the number of spontaneous revertants. Experiment was performed in three repetitions.

[8] = system: Salmonella Typhimurium TA100; conditions: for Number of colonies: ± SD
Procedure: as §4

[9] = Krafft point (TK) determination; format: physicochemical
Procedure: as §3

[10] = S. cerevisiae BY4741, 90% growth inhibition, 24 h
[11] = R. mucilaginosa ATCC 4056, 90% growth inhibition, 24 h
[12] = R. mucilaginosa ATCC 4056, 24 h
[13] = Saccharomyces cerevisiae, ATCC201388, 24 h, S. cerevisiae BY4741, 90% growth inhibition
[14] = Saccharomyces cerevisiae, ATCC201388, 24 h
[15] = Rhodotorula mucilaginosa, ATCC4056, 24 h

Structure (SMILES): CCCCCCCCCCCC(=O)N(CCCN(CCC[N+](C)(C)C)C(=O)CCCCCCCCCCC)CCC[N+](C)(C)C [2xC12BrG3]
- MIC [1, 10]: 20 µM
- Minimum fungicidal concentration (MFC*) ([1]; S. cerevisiae BY4741, 24 h): 320 µM
- MIC ([2]; 90% growth inhibition, YPG): 1280 µM
- MFC ([2]; no growth on solid YPG, 24 h): > 1280 µM
- Minimum inhibitory concentration (MIC) [3, 11]: 10 10* µM
- MIC [3, 11]: 10 µM
- Minimum fungicidal concentration (MFC*) [3, 12]: 10 10* µM
- MIC ([4]; YPG): 640 µM
- MFC [4]: 640 µM
- Destruction (eradication) of formed C. albicans biofilm [5]: approximately 80%
- CMC [6]: 6.4*10^–5 mol/dm^3
- Mutagenicity ratio (MR) ([7]; TA98, ¼ MIC): 0.82
- Number of colonies ([7]; TA98, ¼ MIC): 18.7 ± 2.31
- Mutagenicity ratio (MR) ([7]; TA98, ½ MIC): 7.67
- Number of colonies ([7]; TA98, ½ MIC): 174.5 ± 9.19
- Mutagenicity ratio (MR) ([8]; TA100, ¼ MIC): 0.95
- Number of colonies ([8]; TA100, ¼ MIC): 265.0 ± 7.07
- Mutagenicity ratio (MR) ([8]; TA100, ½ MIC): 1.23
- Number of colonies ([8]; TA100, ½ MIC): 308.3 ± 6.87
- TK (Krafft point) [9]: < 0 °C

Structure (SMILES): CCCCCCCCCCCC(=O)N(CCCN(CCC[N+](C)(C)C)C(=O)CCCCCCCCCCC)CCC[N+](C)(C)C [2xC12MeCO3G3, dimethyl{{3-[N-(3-{N-[3-(dimethylammonium)propyl]dodecylamido}propyl}dodecylamido}propyl}}ammonium dimethylcarbonate]
- MIC [1, 10]: 160 µM
- Minimum fungicidal concentration (MFC*) ([1]; S. cerevisiae BY4741, 24 h): 1280 µM
- Minimum inhibitory concentration (MIC) ([2]; 90% growth inhibition, YPG, 24 h): > 1280 > 1280* µM
- Minimum fungicidal concentration (MFC*) ([2]; no growth on solid YPG, 24 h): > 1280 > 1280* µM
- Minimum inhibitory concentration (MIC) [3, 11]: 320 320* µM
- Minimum fungicidal concentration (MFC*) [3, 12]: 320 320* µM
- Minimum inhibitory concentration (MIC) ([4]; C. albicans ATCC 10231, 90% growth inhibition, YPG, 24 h): > 1280 > 1280* µM
- Minimum fungicidal concentration (MFC*) ([4]; C. albicans ATCC 10231, no growth on solid YPG, 24 h): > 1280 > 1280* µM
- Destruction (eradication) of formed C. albicans biofilm [5]: approximately 40%
- CMC [6]: 1.8*10^–4 mol/dm^3
- Mutagenicity ratio (MR) ([7]; TA98, ¼ MIC): 1.57
- Number of colonies ([7]; TA98, ¼ MIC): 35.8 ± 2.63
- Mutagenicity ratio (MR) ([7]; TA98, ½ MIC): 2.59
- Number of colonies ([7]; TA98, ½ MIC): 59.0 ± 2.65
- Mutagenicity ratio (MR) ([8]; TA100, ¼ MIC): 0.87
- Number of colonies ([8]; TA100, ¼ MIC): 243.0 ± 8.49
- Mutagenicity ratio (MR) ([8]; TA100, ½ MIC): 1.57
- Number of colonies ([8]; TA100, ½ MIC): 438.0 ± 2.83
- TK (Krafft point) [9]: < 0 °C

Structure (SMILES): CCCCCCCCCCCCCC(=O)N(CCCN(CCC[N+](C)(C)C)C(=O)CCCCCCCCCCCCC)CCC[N+](C)(C)C [2xC14BrG3]
- MIC [1, 13]: 160 µM
- MFC [1, 14]: 1280 µM
- MIC ([2]; 90% growth inhibition, YPG): 640 µM
- MFC ([2]; no growth on solid YPG, 24 h): > 1280 µM
- MIC ([3]; Rhodotorula mucilaginosa, ATCC4056, 24 h, R. mucilaginosa ATCC 4056, 90% growth inhibition): 80 µM
- MFC [3, 15]: 320 µM
- MIC ([4]; YPG): 640 µM
- MFC [4]: 1280 µM
- Destruction (eradication) of formed C. albicans biofilm [5]: approximately 80%
- CMC [6]: 5.4*10^–6 mol/dm^3
- Mutagenicity ratio (MR) ([7]; TA98, ¼ MIC): 1.08
- Number of colonies ([7]; TA98, ¼ MIC): 29.7 ± 2.08
- Mutagenicity ratio (MR) ([7]; TA98, ½ MIC): 1.75
- Number of colonies ([7]; TA98, ½ MIC): 48.0 ± 2.83
- Mutagenicity ratio (MR) ([8]; TA100, ¼ MIC): 0.99
- Number of colonies ([8]; TA100, ¼ MIC): 199.0 ± 1.41
- Mutagenicity ratio (MR) ([8]; TA100, ½ MIC): 0.98
- Number of colonies ([8]; TA100, ½ MIC): 197.0 ± 0.71
- TK (Krafft point) [9]: < 0 °C

Structure (SMILES): CCCCCCCCCCCCCCCC(=O)N(CCCN(CCC[N+](C)(C)C)C(=O)CCCCCCCCCCCCCCC)CCC[N+](C)(C)C [2xC16BrG3]
- MIC [1, 13]: 320 µM
- MFC [1, 14]: > 1280 µM
- MIC ([2]; 90% growth inhibition, YPG): > 1280 µM
- MFC ([2]; no growth on solid YPG, 24 h): > 1280 µM
- Minimum inhibitory concentration (MIC) [3, 11]: > 640 640* µM
- MFC [3, 15]: 640 µM
- MIC ([4]; YPG): > 1280 µM
- MFC [4]: > 1280 µM
- Destruction (eradication) of formed C. albicans biofilm [5]: approximately 80%
- CMC [6]: 4.6*10^–7 mol/dm^3
- Mutagenicity ratio (MR) ([7]; TA98, ¼ MIC): 1.51
- Number of colonies ([7]; TA98, ¼ MIC): 34.3 ± 5.69
- Mutagenicity ratio (MR) ([7]; TA98, ½ MIC): 1.85
- Number of colonies ([7]; TA98, ½ MIC): 42.0 ± 5.57
- Number of colonies ([8]; TA100, ¼ MIC): 380.0 ± 1.37
- Mutagenicity ratio (MR) ([8]; TA100, ½ MIC): 1.50
- TK (Krafft point) [9]: ~ 5 °C
